In ChEMBL document CHEMBL4739717, “Methods of treating cartilage disorders through inhibition of clk and dyrk” (2020):
Activity calls are given as the source filed them. The calls are words filed in the database; no cut-off is given here.

Assays:
[1] = Induction of chondrogenesis in human MSC assessed as maximum activity at 185.19 nM incubated for 6 days by rhodamine B and Nile red staining based imaging analysis relative to control; format: functional; conditions: BMMSC, 144 h, time 6 day
[2] = Induction of chondrogenesis in human MSC assessed as incubated for 6 days by rhodamine B and Nile red staining based imaging analysis; format: functional; conditions: bmmsc
[3] = Effect on Wnt signaling pathway in human SW480 cells harbouring TCF/LEF luciferase reporter gene and SP5-Luc reporter gene incubated for 36 to 48 hrs by luminescence assay; format: cell-based
[4] = biological target: Dual specificity tyrosine-phosphorylation-regulated kinase 1A (Homo sapiens, UniProt Q13627); assay: Inhibition of recombinant DYRK1A (unknown origin) using Ser/Thr 18 peptide as substrate incubated for 1 hr in presence of ATP by FRET assay
Chondrocyte [5] = assay: Inhibition of IL1-beta induced MMP3 expression levels in human chondrocytes assessed as MMP3 levels incubated for 2hrs followed by IL1-beta stimulation and measured after 24 hrs by qRT-PCR analysis; format: functional; conditions: time 26.0 hrs
Chondrocyte [6] = assay: Inhibition of IL1-beta induced MMP1 expression levels in human chondrocytes assessed as MMP1 levels incubated for 2hrs followed by IL1-beta stimulation and measured after 24 hrs by qRT-PCR analysis; format: functional; conditions: time 26.0 hrs
[7] = Induction of chondrogenesis in human MSC assessed as maximum activity at 30 nM incubated for 6 days by rhodamine B and Nile red staining based imaging analysis relative to control; format: functional; conditions: BMMSC, 144 h, time 6 day
[8] = biological target: Dual specificity protein kinase CLK2 (Homo sapiens, UniProt P49760); assay: Inhibition of recombinant CLK2 (unknown origin) using Ser/Thr 6 peptide as substrate incubated for 1 hr in presence of ATP by FRET assay
[9] = biological target: Dual specificity protein kinase CLK3 (Homo sapiens, UniProt P49761); assay: Inhibition of recombinant CLK3 (unknown origin) using Ser/Thr 18 peptide as substrate incubated for 1 hr in presence of ATP by FRET assay
Chondrocyte [10] = assay: Inhibition of IL1-beta induced MMP-13 expression levels in human chondrocytes assessed as MMP-13 levels incubated for 2hrs followed by IL1-beta stimulation and measured after 24 hrs by qRT-PCR analysis; format: functional; conditions: time 26.0 hrs
[11] = Induction of chondrogenesis in human MSC assessed as maximum activity at 900 nM incubated for 6 days by rhodamine B and Nile red staining based imaging analysis relative to control; format: functional; conditions: BMMSC, 144 h, time 6 day
[12] = Inhibition of IL1-beta induced MMP3 expression levels in human chondrocytes assessed as MMP3 levels incubated for 2hrs followed by IL1-beta stimulation and measured after overnight incubation by LANCE assay; format: functional, cell-based; conditions: Chondrocyte
[13] = Induction of chondrogenesis in human MSC assessed as maximum activity at 61.73 nM incubated for 6 days by rhodamine B and Nile red staining based imaging analysis relative to control; format: functional; conditions: BMMSC, 144 h, time 6 day
[14] = Induction of chondrogenesis in human MSC assessed as maximum activity at 100 nM incubated for 6 days by rhodamine B and Nile red staining based imaging analysis relative to control; format: functional; conditions: BMMSC, 144 h, time 6 day
[15] = Induction of chondrogenesis in human MSC assessed as maximum activity at 20.58 nM incubated for 6 days by rhodamine B and Nile red staining based imaging analysis relative to control; format: functional; conditions: BMMSC, 144 h, time 6 day
[16] = Induction of chondrogenesis in human MSC assessed as maximum activity at 10 nM incubated for 6 days by rhodamine B and Nile red staining based imaging analysis relative to control; format: functional; conditions: BMMSC, 144 h, time 6 day
[17] = Induction of chondrogenesis in human MSC assessed as maximum activity at 5000 nM incubated for 6 days by rhodamine B and Nile red staining based imaging analysis relative to control; format: functional; conditions: BMMSC, 144 h, time 6 day
[18] = Induction of chondrogenesis in human MSC assessed as maximum activity at 1700 nM incubated for 6 days by rhodamine B and Nile red staining based imaging analysis relative to control; format: functional; conditions: BMMSC, 144 h, time 6 day
[19] = Induction of chondrogenesis in human MSC assessed as maximum activity at 2700 nM incubated for 6 days by rhodamine B and Nile red staining based imaging analysis relative to control; format: functional; conditions: BMMSC, 144 h, time 6 day

Sequence of Dual specificity protein kinase CLK2 (P49760 whole entry): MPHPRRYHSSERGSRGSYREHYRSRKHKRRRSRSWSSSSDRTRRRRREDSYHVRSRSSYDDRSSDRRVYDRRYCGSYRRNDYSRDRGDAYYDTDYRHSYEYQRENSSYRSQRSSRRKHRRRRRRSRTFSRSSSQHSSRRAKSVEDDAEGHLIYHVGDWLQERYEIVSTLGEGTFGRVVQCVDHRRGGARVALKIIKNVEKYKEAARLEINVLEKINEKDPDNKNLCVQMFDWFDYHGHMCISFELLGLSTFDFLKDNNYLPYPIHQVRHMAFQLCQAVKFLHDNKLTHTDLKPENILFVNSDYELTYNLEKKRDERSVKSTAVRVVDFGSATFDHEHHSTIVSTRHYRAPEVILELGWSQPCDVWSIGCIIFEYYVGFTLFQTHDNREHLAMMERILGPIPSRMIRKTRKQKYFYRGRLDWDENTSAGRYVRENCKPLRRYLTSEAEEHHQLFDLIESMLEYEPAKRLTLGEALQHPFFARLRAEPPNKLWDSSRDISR
Sequence of Dual specificity protein kinase CLK3 (P49761 whole entry): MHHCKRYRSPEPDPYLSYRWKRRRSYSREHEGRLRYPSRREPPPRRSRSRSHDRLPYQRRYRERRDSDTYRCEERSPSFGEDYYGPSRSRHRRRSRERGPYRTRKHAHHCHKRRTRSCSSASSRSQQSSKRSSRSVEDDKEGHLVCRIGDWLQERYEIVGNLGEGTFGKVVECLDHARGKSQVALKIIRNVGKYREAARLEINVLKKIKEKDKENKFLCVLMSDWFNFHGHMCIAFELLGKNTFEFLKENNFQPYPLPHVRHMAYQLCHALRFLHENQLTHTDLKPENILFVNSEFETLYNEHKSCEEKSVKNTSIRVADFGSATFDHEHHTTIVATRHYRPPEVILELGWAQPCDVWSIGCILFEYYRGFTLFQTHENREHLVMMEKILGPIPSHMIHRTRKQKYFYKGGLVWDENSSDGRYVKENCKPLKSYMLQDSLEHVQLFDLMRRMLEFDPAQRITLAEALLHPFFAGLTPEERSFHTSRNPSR

| SMILES | EC50 [2] [µM] | EC50 [3] [µM] | EC50 [4] [µM] | other results |
| --- | --- | --- | --- | --- |
| Cc1n[nH]c2ccc(-c3cncc(N[C@H]4CCNC[C@@H]4F)n3)cc12 |  | 0.0843 | 0.001 | Activity (Chondrocyte [5]): inactive; Activity (Chondrocyte [6]): inactive; Emax at 0.03 µM [7]: 25.6%; EC50 [8]: 0.001 µM; EC50 [9]: 0.424 µM; Activity (Chondrocyte [10]): inactive |
| Cc1n[nH]c2ccc(-c3cncc(OC[C@H](N)Cc4ccccc4)n3)cc12 | 0.03 | 0.256 | 0.004 | Emax at 0.1 µM [14]: 52.1%; Activity (Chondrocyte [5]): inactive; Activity (Chondrocyte [6]): inactive; Activity (Chondrocyte [10]): inactive |
| O=C(Nc1cccnc1)c1n[nH]c2ccc(-c3cncc(CN4CC5CC(C4)O5)c3)cc12 | 0.9 | 0.067 |  | Emax at 0.9 µM [11]: 121%; EC50 [12]: 3 µM |
| CN1CCCn2cc(nn2)-c2nccc3[nH]c(nc23)-c2n[nH]c3ccc(cc23)-c2cncc(c2)C1 | 0.01 | 0.338 | 0.004 | Activity (Chondrocyte [5]): inactive; EC50 [12]: 3.78 µM; Activity (Chondrocyte [10]): inactive; Emax at 0.01 µM [16]: 181% |
| CN1CCCCN(C)c2nccc3[nH]c(nc23)-c2c[nH]c3ccc(cc23)-c2cncc(c2)C1 | 5 | 0.577 | 0.002 | Emax at 5 µM [17]: 231%; EC50 [8]: 0.002 µM; EC50 [9]: 0.012 µM |
| COc1cncc(C(=O)Nc2c[nH]nc2C(=O)Nc2ccc(N3CCC(F)(F)C3)nc2)c1 | 0.3 | 0.0057 | 0.014 | Emax at 0.9 µM [11]: 124%; EC50 [12]: 0.0022 µM; EC50 [9]: > 10 µM |
| Fc1ccc(-c2nnc(-c3n[nH]cc3/C=C/c3cccnc3)o2)cc1 |  | 1.51 | 0.015 | Activity (Chondrocyte [5]): inactive; Emax at 0.9 µM [11]: 23.4%; EC50 [12]: 3 µM; Activity (Chondrocyte [10]): inactive |
| CCC(=O)Nc1cncc(-c2ccc3[nH]nc(-c4nc5c(N6CCCCC6)ccnc5[nH]4)c3n2)c1 |  | > 10 | 0.09 | Emax at 0.02058 µM [15]: 38.3% |
| Cn1cc(-c2cc3c(C(=O)Nc4ccc(CN5CCCC5)cc4)n[nH]c3cc2F)cn1 |  | 0.242 | 0.001 | Emax at 0.1 µM [14]: 27.4%; Activity (Chondrocyte [5]): inactive; Activity (Chondrocyte [6]): inactive; EC50 [12]: 3 µM |
| Cc1n[nH]c2cc(F)c(-c3cncc(O[C@H]4CCNC[C@@H]4F)n3)cc12 |  | 0.63 | 0.006 | Activity (Chondrocyte [6]): inactive; EC50 [8]: 0.001 µM; EC50 [9]: 1.3 µM; Activity (Chondrocyte [10]): inactive |
| Fc1cccc(-c2cccc3[nH]c(-c4n[nH]cc4/C=C/c4cncc(CN5CCCC5)c4)nc23)c1 | 2.7 | 0.0821 | 0.02 | Emax at 2.7 µM [19]: 81.7%; Activity (Chondrocyte [5]): inactive; Activity (Chondrocyte [6]): inactive; EC50 [12]: 0.0014 µM |
| O=C1CCc2cccc(c2)-c2cncc(c2)NC(=O)c2n[nH]c3ccc(cc23)-c2cncc(c2)CN1 | 0.03 | > 10 |  | Activity (Chondrocyte [5]): inactive; Activity (Chondrocyte [6]): inactive; Emax at 0.03 µM [7]: 69.4%; EC50 [12]: 0.01 µM; Activity (Chondrocyte [10]): inactive |

The next lines start with results.

| EC50 [2] [µM] | EC50 [3] [µM] | EC50 [4] [µM] | SMILES | other results |
| --- | --- | --- | --- | --- |
| 0.00686 | 0.46 | 0.024 | Oc1cncc(-c2ccc3[nH]nc(-c4nc5c(-c6cccc(F)c6)nccc5[nH]4)c3n2)c1 | Emax at 0.18519 µM [1]: 56.7% |
|  | 0.01 | 0.004 | CN(C)C(=O)Nc1cncc(-c2cnc3[nH]nc(-c4nc5c(-c6cccc(F)c6)cncc5[nH]4)c3c2)c1 | Emax at 0.9 µM [11]: 68.1%; EC50 [12]: 0.0406 µM |
|  |  | 0.051 | COc1cncc(-c2ccc3[nH]nc(-c4nc5c(-c6cccc(F)c6)ccnc5[nH]4)c3n2)c1 | Emax at 0.06173 µM [13]: 47% |
| 0.0206 | 0.12 | 0.046 | COc1cncc(-c2ccc3[nH]nc(-c4nc5c(-c6cccc(F)c6)nccc5[nH]4)c3n2)c1 | Emax at 0.02058 µM [15]: 60.4% |
| 0.0206 | > 10 | 0.016 | Fc1cccc(-c2cncc3[nH]c(-c4n[nH]c5ccc(-c6cn[nH]c6)nc45)nc23)c1 | Emax at 0.02058 µM [15]: 51.8%; EC50 [9]: > 10 µM |
| 0.00229 | 0.375 | 0.043 | Oc1cncc(-c2ccc3[nH]nc(-c4nc5c(-c6cccc(F)c6)ccnc5[nH]4)c3n2)c1 | Emax at 0.02058 µM [15]: 59.3% |
| 0.0206 | 3.6 | 0.046 | CCCC(=O)Nc1cncc(-c2ccc3[nH]nc(-c4nc5c(-c6ccsc6)cncc5[nH]4)c3n2)c1 | Emax at 0.02058 µM [15]: 58.4% |
|  | > 10 | 0.036 | CCC(=O)Nc1cncc(-c2ccc3[nH]nc(-c4nc5c(-c6cccc(F)c6)ccnc5[nH]4)c3n2)c1 | Emax at 0.06173 µM [13]: 29.3% |
| 0.0206 |  | 0.04 | COc1cncc(-c2ccc3[nH]nc(-c4nc5c(-c6cccc(F)c6)cncc5[nH]4)c3n2)c1 | Emax at 0.06173 µM [13]: 55.5% |
|  | 0.999 | 0.013 | CCCC(=O)Nc1cncc(-c2ccc3[nH]nc(-c4nc5c(-c6ccncc6)cncc5[nH]4)c3n2)c1 | Emax at 0.18519 µM [1]: 31% |
| 0.0206 | > 10 | 0.031 | Oc1cncc(-c2ccc3[nH]nc(-c4nc5c(-c6cccc(F)c6)cncc5[nH]4)c3n2)c1 | Emax at 0.02058 µM [15]: 53.6% |
| 0.2 | 0.0418 |  | c1cc2cc(c1)-c1cncc3[nH]c(nc13)-c1n[nH]c3ccc(cc13)-c1cncc(c1)CNC2 | Emax at 1.7 µM [18]: 588% |
|  | > 10 | 0.012 | CCNCc1cncc(-c2ccc3[nH]nc(-c4nc5c(-c6cc(F)cc(NCCN(C)C)c6)nccc5[nH]4)c3n2)c1 | Emax at 0.06173 µM [13]: 35.6% |
| 0.0206 | > 10 | 0.008 | CCNCc1cncc(-c2ccc3[nH]nc(-c4nc5c(-c6cc(F)cc(NCCN(C)C)c6)ccnc5[nH]4)c3n2)c1 | Emax at 0.02058 µM [15]: 149% |
|  | > 10 | 0.03 | CC(C)C(=O)Nc1cncc(-c2ccc3[nH]nc(-c4nc5c(-c6cccnc6)ccnc5[nH]4)c3n2)c1 | Emax at 0.06173 µM [13]: 26.1% |
